Laboratory results as given in patent US11634404B2 (priority 2016, dated 2023).

Columns and labels:
D2 DAR = D2 DAR (Homo sapiens (Human), UniProt P14416); assay: [35S]GTPγS binding assay; assay type: biochemical; settings: % maximum dopamine response
Description: A [^35S]GTPγS (Perkin Elmer NEG030H) binding assay was utilized as described in the protocol below (Table 7).

panel of 168 GPCRs [1] = target: panel of 168 GPCRs (Homo sapiens, UniProt P30874); assay type: cell-based; settings: GPCR SSTR2; agonist, 10 μM
panel of 168 GPCRs [2] = target: panel of 168 GPCRs (Homo sapiens, UniProt P0DMS8); assay type: cell-based; settings: GPCR ADORA3; agonist, 10 μM
panel of 168 GPCRs [3] = target: panel of 168 GPCRs (Homo sapiens, UniProt P47211); assay type: cell-based; settings: GPCR GALR1; agonist, 10 μM
panel of 168 GPCRs [4] = target: panel of 168 GPCRs (Homo sapiens, UniProt P28566); assay type: cell-based; settings: GPCR HTR1E; agonist, 10 μM
panel of 168 GPCRs [5] = target: panel of 168 GPCRs (Homo sapiens, UniProt P21462); assay type: cell-based; settings: GPCR FPR1; agonist, 10 μM
panel of 168 GPCRs [6] = target: panel of 168 GPCRs (Homo sapiens, UniProt P43119); assay type: cell-based; settings: GPCR PTGIR; agonist, 10 μM
panel of 168 GPCRs [7] = target: panel of 168 GPCRs (Homo sapiens, UniProt P61073); assay type: cell-based; settings: GPCR CXCR4; agonist, 10 μM
panel of 168 GPCRs [8] = target: panel of 168 GPCRs (Homo sapiens, UniProt Q9Y5N1); assay type: cell-based; settings: GPCR HRH3; agonist, 10 μM
panel of 168 GPCRs [9] = target: panel of 168 GPCRs (Homo sapiens, UniProt P11229); assay type: cell-based; settings: GPCR CHRM1; agonist, 10 μM
panel of 168 GPCRs [10] = target: panel of 168 GPCRs (Homo sapiens, UniProt Q92847); assay type: cell-based; settings: GPCR GHSR; agonist, 10 μM
panel of 168 GPCRs [11] = target: panel of 168 GPCRs (Homo sapiens, UniProt Q96RI0); assay type: cell-based; settings: GPCR F2RL3; agonist, 10 μM
panel of 168 GPCRs [12] = target: panel of 168 GPCRs (Homo sapiens, UniProt P25025); assay type: cell-based; settings: GPCR CXCR2; agonist, 10 μM
panel of 168 GPCRs [13] = target: panel of 168 GPCRs (Homo sapiens, UniProt O95838); assay type: cell-based; settings: GPCR GLP2R; agonist, 10 μM
panel of 168 GPCRs [14] = assay type: cell-based; settings: GPCR DRD2S; agonist, 10 μM
panel of 168 GPCRs [15] = target: panel of 168 GPCRs (Homo sapiens, UniProt O00574); assay type: cell-based; settings: GPCR CXCR6; agonist, 10 μM
panel of 168 GPCRs [16] = target: panel of 168 GPCRs (Homo sapiens, UniProt P51685); assay type: cell-based; settings: GPCR CCR8; agonist, 10 μM
panel of 168 GPCRs [17] = target: panel of 168 GPCRs (Homo sapiens, UniProt Q96LB1); assay type: cell-based; settings: GPCR MRGPRX2; agonist, 10 μM
panel of 168 GPCRs [18] = target: panel of 168 GPCRs (Homo sapiens, UniProt Q16581); assay type: cell-based; settings: GPCR C3AR1; agonist, 10 μM
D3R Y365A [19] = target: T1, D3R Y365A (Homo sapiens (Human), UniProt P35462, Y365A); assay: arrestin BRET assay, mutagenesis; assay type: cell-based; settings: Y365A mutation
Procedure: (§1) BRET arrestin recruitment assay. As an orthogonal test using an unrelated assay of D3R-mediated β-arrestin recruitment, an arrestin BRET assay was conducted.
(§2) […]. […] […]. The Y365A mutation had more dramatic effects. […].

D3R Y198A [20] = target: T2, D3R Y198A (Homo sapiens (Human), UniProt P35462, Y198A); assay: arrestin BRET assay, mutagenesis; assay type: cell-based
Procedure: as §1, §2

D3R Y365A [21] = target: T1, D3R Y365A; assay: Go BRET assay, mutagenesis; assay type: cell-based
Description: (§3) Go BRET activation assay. […].
as §2

D3R Y198A [22] = target: T2, D3R Y198A; assay: Go BRET assay, mutagenesis; assay type: cell-based
Description: as §3, §2

[23] = system: receptors, transporters and some ion channels; assay: PDSP primary radioligand binding panel; settings: 10 μM, >50% inhibition considered significant
Description: […]. […] […]. […] […].
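For β-Arrestin Recruitment activity in this document: recruitment activity reported in % for each GPCR in the panel.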

T1 sequence (P35462 whole entry Y365A): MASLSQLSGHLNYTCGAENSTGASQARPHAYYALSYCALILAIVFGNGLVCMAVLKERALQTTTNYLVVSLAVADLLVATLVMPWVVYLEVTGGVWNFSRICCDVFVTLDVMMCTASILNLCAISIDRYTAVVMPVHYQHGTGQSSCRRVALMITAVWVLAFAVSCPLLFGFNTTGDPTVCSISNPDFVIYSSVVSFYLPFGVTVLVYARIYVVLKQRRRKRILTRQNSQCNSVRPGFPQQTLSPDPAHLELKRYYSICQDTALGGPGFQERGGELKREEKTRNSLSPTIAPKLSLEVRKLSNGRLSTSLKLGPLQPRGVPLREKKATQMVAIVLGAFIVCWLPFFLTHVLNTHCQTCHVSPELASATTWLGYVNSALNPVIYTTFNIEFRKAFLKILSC
T2 sequence (P35462 whole entry Y198A): as the sequence (P35462 whole entry Y365A) above, with Y198A, A365Y counted along it
Sequence of panel of 168 GPCRs (Homo sapiens, UniProt Q96RI0) (Q96RI0 18-385 limits assumed): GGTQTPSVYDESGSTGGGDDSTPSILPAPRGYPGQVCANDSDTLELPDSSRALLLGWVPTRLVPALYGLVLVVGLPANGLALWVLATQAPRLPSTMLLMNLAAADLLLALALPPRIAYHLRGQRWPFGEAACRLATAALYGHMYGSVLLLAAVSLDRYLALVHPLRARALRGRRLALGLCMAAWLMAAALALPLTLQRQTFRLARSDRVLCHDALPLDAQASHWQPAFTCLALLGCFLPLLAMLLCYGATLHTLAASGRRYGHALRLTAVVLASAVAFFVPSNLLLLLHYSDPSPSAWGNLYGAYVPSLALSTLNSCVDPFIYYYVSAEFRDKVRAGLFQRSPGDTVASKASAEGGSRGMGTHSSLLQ
Sequence of D2 DAR (P14416 whole entry): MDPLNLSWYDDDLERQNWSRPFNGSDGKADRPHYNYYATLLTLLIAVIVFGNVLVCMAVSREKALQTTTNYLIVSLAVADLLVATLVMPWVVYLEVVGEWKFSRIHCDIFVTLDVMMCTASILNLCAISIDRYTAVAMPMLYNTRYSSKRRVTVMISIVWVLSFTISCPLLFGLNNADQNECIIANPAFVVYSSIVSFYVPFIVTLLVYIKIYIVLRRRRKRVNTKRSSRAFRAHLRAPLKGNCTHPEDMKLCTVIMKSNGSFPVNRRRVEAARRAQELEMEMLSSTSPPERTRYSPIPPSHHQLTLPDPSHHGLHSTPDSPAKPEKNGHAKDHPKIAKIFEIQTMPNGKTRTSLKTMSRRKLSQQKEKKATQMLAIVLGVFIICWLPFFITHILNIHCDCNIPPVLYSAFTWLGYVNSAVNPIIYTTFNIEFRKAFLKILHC

COc1ccc(OCCN2CCN(C(=O)c3cc4ccccc4[nH]3)CC2)cc1 [Compound 1, (1H-indol-2-yl)(4-(2-(4-methoxyphenoxy)ethyl)piperazin-1-yl)methanone]
activation of the D2 DAR, [35S]GTPγS binding (D2 DAR): not to activate the D2 DAR
β-Arrestin Recruitment activity (panel of 168 GPCRs [1]): 0%
β-Arrestin Recruitment activity (panel of 168 GPCRs [2]): 8%
β-Arrestin Recruitment activity (panel of 168 GPCRs [3]): 4%
β-Arrestin Recruitment activity (panel of 168 GPCRs [4]): 4%
β-Arrestin Recruitment activity (panel of 168 GPCRs [5]): 5%
β-Arrestin Recruitment activity (panel of 168 GPCRs [6]): 4%
β-Arrestin Recruitment activity (panel of 168 GPCRs [7]): 17%
β-Arrestin Recruitment activity (panel of 168 GPCRs [8]): 3%
β-Arrestin Recruitment activity (panel of 168 GPCRs [9]): 5%
β-Arrestin Recruitment activity (panel of 168 GPCRs [10]): −3%
β-Arrestin Recruitment activity (panel of 168 GPCRs [11]): 4%
β-Arrestin Recruitment activity (panel of 168 GPCRs [12]): 6%
β-Arrestin Recruitment activity (panel of 168 GPCRs [13]): 0%
β-Arrestin Recruitment activity (panel of 168 GPCRs [14]): 43%
β-Arrestin Recruitment activity (panel of 168 GPCRs [15]): 8%
β-Arrestin Recruitment activity (panel of 168 GPCRs [16]): 0%
β-Arrestin Recruitment activity (panel of 168 GPCRs [17]): 5%
β-Arrestin Recruitment activity (panel of 168 GPCRs [18]): 0%
efficacy, % that of dopamine (D3R Y365A [19]): 210%
potency reduction (D3R Y365A [19]): 440 fold
effect of mutation on potency (D3R Y198A [20]): minimal effects on the potency
signaling efficacy, % that of dopamine (D3R Y198A [20]; Y198A mutation): 36%
effect of mutation on efficacy (D3R Y365A [21]): appeared to be unaffected
potency reduction (D3R Y365A [21]; Y365A mutation): 25,000 fold
effect of mutation on potency (D3R Y198A [22]): minimal effects on the potency
signaling efficacy, % that of dopamine (D3R Y198A [22]; Y198A mutation): 64%
affinity in primary binding panel [23]: displays affinity for only the D3R, 5-HT1A, 5-HT2B, and Sigmal receptor
